According to patent publication US11648289B2, “Antibacterial method” (priority 2016, dated 2023):
No end group written: not given here.

Tests used:
E. faecalis (2) = settings: E. faecalis (2), Table 6B
Method: (§1) All the strains (see below) used in minimal inhibitory concentration (MIC) assays (Ovchinnikov et al., 2017, Front Microbiol., 8, p774, doi:10.3389/fmicb.2017.00774) were grown in BHI medium (Oxoid) at 30° C. without shaking. The tested strains were obtained from the LMG collection. […] NisinZ and micrococcin P1 were purified from source. Synthesized peptides were solubilized to concentrations of 10.0-0.1 mg/ml in 0.1% (vol/vol) trifluoroacetic acid and stored at −20° C. until use. Garvicin KS is made up of 3 peptides:
(§2) Bacteriocin activity was determined using a microtitre plate assay. The plates were incubated at 30° C. for 8 h and the growth was measured spectrophotometrically at 600 nm (A600) with 15 min intervals using SPECTROstarNano (BMG LABTECH, Germany). The MIC was defined as the bacteriocin concentration that inhibited the growth of the indicator strain by at least 50% in 200 μl culture (i.e., 50% of the turbidity of the control culture without bacteriocin).

E. faecium (2) = settings: E. faecium (2), Table 6B
Method: as §1, §2

E. hirae (4) = settings: E. hirae (4), Table 6B
Method: as §1, §2

Listeria spp. (3) = settings: Listeria spp. (3), Table 6B
Method: as §1, §2

[1] = tested on: E. faecium and E. faecalis; settings: 20 μl of 1 mg/ml bacteriocin on soft agar, overnight, 30° C. vs 45° C.
KAVA = test: MIC microtitre plate assay, pathogenic isolates; format: cell-based; settings: KAVA
Method: The tested strains were obtained from the LMG collection. […] NisinZ and micrococcin P1 were purified from source. […] Garvicin KS is made up of 3 peptides:
Bacteriocin activity was determined using a microtitre plate assay. The plates were incubated at 30° C. for 8 h and the growth was measured spectrophotometrically at 600 nm (A600) with 15 min intervals using SPECTROstarNano (BMG LABTECH, Germany).

SH 4015 = test: microbe, parasite or virus in culture; settings: SH 4015 (S. haemolyticus)
Method: as §1, §2

SH 4016 = test: microbe, parasite or virus in culture; settings: SH 4016 (S. haemolyticus)
Method: as §1, §2

Sa 3242 = test: microbe, parasite or virus in culture; settings: Sa 3242 (S. aureus)
Method: as §1, §2

Sa 3328 = test: microbe, parasite or virus in culture; settings: Sa 3328 (S. aureus)
Method: as §1, §2

Sa ATCC 33591 = test: microbe, parasite or virus in culture; settings: Sa ATCC 33591 (S. aureus)
Method: as §1, §2

Sa3323 = test: microbe, parasite or virus in culture; settings: Sa3323 (S. aureus)
Method: as §1, §2

Sa3324 = test: microbe, parasite or virus in culture; settings: Sa3324 (S. aureus)
Method: as §1, §2

Sequence | MIC (E. faecalis (2)) | MIC (E. faecium (2)) | MIC (E. hirae (4)) | MIC (Listeria spp. (3)) | appearance of resistant mutants at growth temperature [1] | MIC (KAVA) | MIC (SH 4015) | MIC (SH 4016) | MIC (Sa 3242) | MIC (Sa 3328) | MIC (Sa ATCC 33591) | MIC (Sa3323) | MIC (Sa3324)
MKFKFNPTGTIVKKLTQYEIAWFKNKHGYYPWEIPRC [EntK1] | >25 µg/mL | <0.02 to 0.4 µg/mL | 0.2 to 0.8 µg/mL | >50 µg/mL | only appeared at 30 °C but not at 45 °C | – | – | – | – | – | – | – | –
MLAKIKAMIKKFPNPYTLAAKLTTYEINWYKQQYGRYPWERPVA [EntEJ97] | 3.1 µg/mL | 0.8 to 1.6 µg/mL | 0.4 to 1.6 µg/mL | 12.5 to 25 µg/mL | only appeared at 30 °C but not at 45 °C | >50 µg/mL | 12.5 µg/mL | 12.5 µg/mL | 6.25 µg/mL | 6.25 µg/mL | >50 µg/mL | 6.25 µg/mL | 12.5 µg/mL
